Experiments:
patients = conditions: cited from earlier work
[1] = system: poly(ADP-ribose) (PAR) levels in peripheral blood mononuclear cells; experiment: PAR levels in PBMCs by sandwich ELISA; assay type: in vivo, human; conditions: topotecan alone, Day 30 (Cycle 2 Day 2); of 20 quantifiable pairs
[2] = Plasma pharmacokinetics of veliparib and topotecan; assay type: in vivo, human; conditions: for half-life / AUC(0-t): human, plasma; for AUC(0-t): oral
[3] = system: recurrent, platinum-resistant ovarian cancer; conditions: cited from earlier work
[4] = daily 1-hour infusion for 5 consecutive days, recurrent platinum-resistant ovarian cancer

Compound: O=C(c1cc(Cc2n[nH]c(=O)c3ccccc23)ccc1F)N1CCN(C(=O)C2CC2)CC1 [olaparib]
- RP2D of the combination, olaparib dose (patients; per dose, twice daily days 1–5, with irinotecan every two weeks): 50 mg

Compound: CC[C@@]1(O)C(=O)OCc2c1cc1n(c2=O)Cc2cc3c(CN(C)C)c(O)ccc3nc2-1 [topotecan]
- sample pairs with decreased PAR levels [1]: 7
- sample pairs with increased PAR levels [1]: 11
- sample pairs with unchanged PAR levels [1]: 2
- single-agent MTD (patients; weekly topotecan (days 2, 9 and 16)): 4 mg/m^2
- half-life ([2]; iv): 2.7 ± 0.6 h
- plasma clearance, mean (± SD) ([2]; topotecan administered alone on Cycle 2, iv): 10.1 ± 3.8 L/hr/m^2
- median overall survival [3, 4]: 57 weeks
- overall response rate [3, 4]: 17%
- women with myelosuppression ([3]; daily x 5 topotecan): up to 75%
- response rate ([3]; phase II, days 1, 8, 15 of a 28-day cycle, platinum refractory/resistant ovarian cancer): 18%
- grade 4 toxicities ([3]; phase II, days 1, 8, 15 of a 28-day cycle, myelosuppression mild): no grade 4 toxicities observed

Compound: C[C@]1(c2nc3c(C(N)=O)cccc3[nH]2)CCCN1 [veliparib]
- single agent MTD (patients; veliparib bid): 400 mg
- AUC(0-t) ([2]; 10 mg): 351 ± 69 ng·h/mL
- AUC(0-t) ([2]; 300 mg): 15000 ± 3090 ng·h/mL
- half-life ([2]; po): 6.1 ± 2.8 h

Source: PMC7580251 (Clinical cancer research : an official journal of the …, 2017)
